Drawing on DBAASP, this text covers MIC for 6 molecules.

Values after ≈ are worked out from the molar mass of the structure shown.

Test systems include Escherichia coli O111; Streptococcus mutans; Clostridium perfringens; Klebsiella pneumoniae; Listeria monocytogenes; Saccharomyces cerevisiae; Candida albicans; Pseudomonas aeruginosa; Streptococcus pneumoniae; Vibrio cholerae; Neisseria meningitidis; Escherichia coli Ec513; Salmonella typhimurium; Escherichia coli B.
What all share (assay): ≥ marks a high value that may be exact or a test limit, other limits are often not marked, values filed in µg/mL are converted to µM
For assay [1], the system named is Lacticaseibacillus casei ATCC 4646.
Assay [2] has as its system Streptococcus gordonii Challis DL1.
The test system of assay [3] is Streptococcus mitis ATCC 903.
Assay [4] has as its system Veillonella atypica PK1910.
For assay [5], the system named is Streptococcus sanguinis NY101.
Assay [6] relates to Salmonella enterica subsp. enterica serovar Enteritidis.
In assay [7] the test system is Escherichia coli 363 ATCC 11775.
Assay [8] relates to Bacillus megaterium ATCC 9885.
For assay [9], the system named is Staphylococcus haemolyticus.
Assay [10] deals with Staphylococcus aureus ATCC 25923.
Assay [11] relates to Salmonella typhimurium CIP 6062.
Assay [12] concerns Enterobacter cloacae ATCC 11775.
Assay [13] concerns Pseudomonas aeruginosa ATCC 27853.
Assay [14] has as its system Escherichia coli ATCC 25726.
The subject of assay [15] is Pseudomonas aeruginosa Pa4216.
Assay [16] concerns Staphylococcus aureus Sa1390.
In assay [17] the test system is Klebsiella pneumoniae ATCC 700603.
For assay [18], the system named is Pseudomonas aeruginosa Pa1409.
The test system of assay [19] is Acinetobacter baumannii Ab5755.
Assay [20] concerns Candida albicans ATCC 90028.
Assay [21] has as its system Acinetobacter baumannii NM35.
In assay [22] the test system is Acinetobacter baumannii Ab5753.
The subject of assay [23] is Acinetobacter baumannii NM124.
Assay [24] has as its system Acinetobacter baumannii Ab1408.
In assay [25] the test system is Acinetobacter baumannii NM8.

For the molecule `CC[C@H](C)[C@H](NC(=O)[C@H](CO)NC(=O)[C@@H]1CCCN1C(=O)[C@H](C)NC(=O)CNC(=O)[C@H](CC(C)C)NC(=O)[C@H](CCCCN)NC(=O)[C@H](CCCN=C(N)N)NC(=O)[C@H](CCSC)NC(=O)[C@H](CCCN=C(N)N)NC(=O)[C@H](CCCN=C(N)N)NC(=O)[C@H](CCC(N)=O)NC(=O)[C@H](Cc1c[nH]c2ccccc12)NC(=O)[C@H](CCC(N)=O)NC(=O)[C@@H](N)Cc1ccc(O)cc1)C(=O)N[C@H](C(=O)O)[C@@H](C)O` [YQWQRRMRKLGAPSIT], the MIC with Escherichia coli O111 was at least 100 µM.
For `NCCCC[C@H](NC(=O)[C@H](Cc1c[nH]c2ccccc12)NC(=O)[C@H](Cc1ccccc1)NC(=O)[C@H](CCCCN)NC(=O)[C@H](CCCCN)NC(=O)[C@@H](N)Cc1ccccc1)C(=O)N[C@@H](Cc1c[nH]c2ccccc12)C(=O)N[C@@H](Cc1ccccc1)C(=O)N[C@@H](CCCN=C(N)N)C(=O)N[C@@H](CCCN=C(N)N)C(=O)N[C@@H](Cc1ccccc1)C(=O)NCC(=O)NCC(=O)NCC(=O)N[C@@H](CCCN=C(N)N)C(=O)N[C@@H](Cc1c[nH]c2ccccc12)C(=O)N[C@@H](CCCN=C(N)N)C(=O)N[C@@H](Cc1c[nH]c2ccccc12)C(=O)N[C@@H](CCCN=C(N)N)C(=O)N[C@@H](Cc1c[nH]c2ccccc12)C(=O)N[C@@H](Cc1ccccc1)C(N)=O` [FKKFWKWFRRFGGGRWRWRWF], the MIC in assay [1] came to 2.65 µM (≈ 8 µg/mL); in assay [2], 10.6 µM (≈ 32 µg/mL); in assay [3], 21.2 µM (≈ 64 µg/mL); in assay [4], 2.65 µM (≈ 8 µg/mL); in the assay on Streptococcus mutans, 2.65 µM (≈ 8 µg/mL); in assay [5] it was 5.3 µM (≈ 16 µg/mL).
Take `CC(C)C[C@H](NC(=O)[C@H](Cc1ccccc1)NC(=O)[C@H](CCCN=C(N)N)NC(=O)[C@H](CCCCN)NC(=O)[C@@H](N)CC(C)C)C(=O)N[C@@H](CCCCN)C(=O)N[C@@H](Cc1c[nH]c2ccccc12)C(=O)N[C@@H](Cc1ccccc1)C(=O)N[C@@H](CCCCN)C(=O)N[C@@H](CCCN=C(N)N)C(=O)N[C@@H](Cc1ccccc1)C(=O)NCC(=O)NCC(=O)NCC(=O)N[C@@H](CCCN=C(N)N)C(=O)N[C@@H](Cc1c[nH]c2ccccc12)C(=O)N[C@@H](CCCN=C(N)N)C(=O)N[C@@H](Cc1c[nH]c2ccccc12)C(=O)N[C@@H](CCCN=C(N)N)C(=O)N[C@@H](Cc1c[nH]c2ccccc12)C(=O)N[C@@H](Cc1ccccc1)C(N)=O` [LKRFLKWFKRFGGGRWRWRWF]: the MIC in [1] was 5.49 µM (≈ 16 µg/mL); in assay [2] it was 22 µM (≈ 64 µg/mL); in [3], 22 µM (≈ 64 µg/mL); in [4], 2.74 µM (≈ 8 µg/mL); in the assay on Streptococcus mutans it was 2.74 µM (≈ 8 µg/mL); in assay [5], 5.49 µM (≈ 16 µg/mL).
As to `CC[C@H](C)[C@H](NC(=O)[C@H](CC(C)C)NC(=O)[C@H](CO)NC(=O)[C@@H](NC(=O)[C@@H](NC(=O)[C@H](CC(C)C)NC(=O)CN)C(C)C)[C@@H](C)O)C(=O)N[C@@H](CCCCN)C(=O)NCC(=O)N[C@@H](C)C(=O)NCC(=O)N[C@@H](CCCCN)C(=O)N[C@@H](CC(C)C)C(=O)N[C@@H](CC(C)C)C(=O)NCC(=O)NCC(=O)N[C@@H](CC(C)C)C(=O)N[C@@H](Cc1ccccc1)C(=O)NCC(=O)N[C@@H](CO)C(=O)N[C@H](C(=O)N[C@H](C(=O)NCC(N)=O)[C@@H](C)O)C(C)C` [GLVTSLIKGAGKLLGGLFGSVTG], the MIC in the assay with Clostridium perfringens is 25 µM (≈ 53.6 µg/mL); with Klebsiella pneumoniae, 3.1 µM (≈ 6.65 µg/mL); in assay [6] it was 1.5 µM (≈ 3.22 µg/mL); in the assay with Listeria monocytogenes it was 12.5 µM (≈ 26.8 µg/mL); against Saccharomyces cerevisiae, 12.5 µM (≈ 26.8 µg/mL); against Candida albicans, 12.5 µM (≈ 26.8 µg/mL). The MIC against Pseudomonas aeruginosa came to 1.5 µM (≈ 3.22 µg/mL); in [7], 6.25 µM (≈ 13.4 µg/mL); in [8], 3.15 µM (≈ 6.76 µg/mL); against Streptococcus pneumoniae, 3.1 µM (≈ 6.65 µg/mL); in assay [9], 6.25 µM (≈ 13.4 µg/mL); against Vibrio cholerae, 6.25 µM (≈ 13.4 µg/mL). The MIC in assay [10] is 6.25 µM (≈ 13.4 µg/mL); in the assay with Neisseria meningitidis, 25 µM (≈ 53.6 µg/mL); in [11] it was 12.6 µM (≈ 26.9 µg/mL); in assay [12], 12.6 µM (≈ 26.9 µg/mL).
Take `CC[C@H](C)[C@H](NC(=O)CNC(=O)[C@H](CCCCN)NC(=O)[C@@H](NC(=O)[C@H](CC(C)C)NC(=O)[C@H](CO)NC(=O)CNC(=O)[C@H](CC(C)C)NC(=O)CNC(=O)[C@H](C)NC(=O)[C@H](CCCCN)NC(=O)[C@H](Cc1ccccc1)NC(=O)[C@@H](NC(=O)[C@H](CCCCN)NC(=O)[C@H](CCCCN)NC(=O)[C@H](CC(C)C)NC(=O)CN)[C@@H](C)CC)C(C)C)C(=O)N[C@@H](C)C(=O)N[C@@H](C)C(=O)N[C@@H](Cc1cnc[nH]1)C(=O)N[C@H](C(=O)N[C@@H](C)C(=O)N[C@@H](CO)C(N)=O)C(C)C` [GLKKIFKAGLGSLVKGIAAHVAS]: the MIC is 6 µM (≈ 13.6 µg/mL) in assay [13]; 5 µM (≈ 11.3 µg/mL) in [14]; 28.2 µM (≈ 64 µg/mL) in assay [15]; at least 56.5 µM in assay [16]; 12.5 µM (≈ 28.3 µg/mL) in assay [17]; at least 56.5 µM in assay [18]. Moreover, the MIC was 3.53 µM (≈ 8 µg/mL) in assay [19]; 20 µM (≈ 45.3 µg/mL) in assay [20]; 5 µM (≈ 11.3 µg/mL) in [21]; 14.1 µM (≈ 32 µg/mL) against Escherichia coli Ec513; 250 µM (≈ 566 µg/mL) in assay [10]; 28.2 µM (≈ 64 µg/mL) in assay [22]. In addition, the figures for the MIC in [23], in [24] and in [25] were 1.25 µM (≈ 2.83 µg/mL), 28.2 µM (≈ 64 µg/mL) and 2.5 µM (≈ 5.66 µg/mL), respectively.
With `CC(C)C[C@H](NC(=O)[C@H](CC(C)C)NC(=O)[C@H](CCCCN)NC(=O)CNC(=O)[C@H](C)NC(=O)[C@@H](NC(=O)[C@H](CCCCN)NC(=O)[C@H](CC(C)C)NC(=O)[C@H](CC(C)C)NC(=O)[C@H](CC(=O)O)NC(=O)[C@@H](NC(=O)[C@@H](NC(=O)[C@@H](NC(=O)CN)C(C)C)C(C)C)[C@@H](C)O)[C@@H](C)O)C(=O)NCC(=O)N[C@@H](CC(N)=O)C(=O)N[C@@H](CC(C)C)C(=O)N[C@@H](Cc1ccccc1)C(=O)NCC(=O)N[C@@H](CO)C(=O)N[C@@H](CC(C)C)C(=O)N[C@@H](CO)C(=O)NCC(N)=O` [GVVTDLLKTAGKLLGNLFGSLSG], the MIC with Clostridium perfringens is at least 100 µM; with Klebsiella pneumoniae, 6.25 µM (≈ 14.1 µg/mL); against Salmonella typhimurium, 6.25 µM (≈ 14.1 µg/mL); in [6], 3.1 µM (≈ 7.01 µg/mL); in the assay with Listeria monocytogenes, at least 50 µM; in the assay on Saccharomyces cerevisiae, at least 100 µM. In addition, the minimal inhibitory concentration (MIC) against Candida albicans was 50 µM (≈ 113 µg/mL); in the assay on Pseudomonas aeruginosa, 3.1 µM (≈ 7.01 µg/mL); in [7] it was 6.25 µM (≈ 14.1 µg/mL); in assay [8], at least 50.2 µM; in the assay on Streptococcus pneumoniae, 12.5 µM (≈ 28.2 µg/mL); in assay [9], at least 50 µM. The MIC against Vibrio cholerae is 25 µM (≈ 56.5 µg/mL); in the assay with Escherichia coli B, 12.5 µM (≈ 28.2 µg/mL); in assay [10], 6.25 µM (≈ 14.1 µg/mL); against Neisseria meningitidis, at least 50 µM; in [11] it was 25.2 µM (≈ 57.1 µg/mL); in assay [12] it was 12.5 µM (≈ 28.2 µg/mL).
